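Values below derive from 48-hour exposures of cells grown in 96-well plates, with endpoints linearly interpolated between the two concentrations bracketing the appropriate inhibition level. TGI denotes the concentration required for complete inhibition of growth.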
Columns and labels:
Test in all cases: DTP human tumour cell line panel, 48 h
[1] = system: M14 melanoma
[2] = system: SN12C renal
[3] = system: OVCAR-5 ovarian
[4] = system: SF-539 CNS
[5] = system: HOP-62 NSCLC
[6] = system: NCI/ADR-RES ovarian
[7] = system: SK-MEL-28 melanoma
[8] = system: OVCAR-8 ovarian
[9] = system: U251 CNS
[10] = system: ACHN renal
[11] = system: NCI-H23 lung
[12] = system: A498 renal
[13] = system: EKVX NSCLC
[14] = system: SNB-19 CNS
[15] = system: KM12 colon
[16] = system: CCRF-CEM leukemia
[17] = system: NCI-H460 lung
[18] = system: K-562 leukemia
[19] = system: SW-620 colon
[20] = system: MDA-MB-231 breast
[21] = system: UO-31 renal
[22] = system: IGROV1 ovarian
[23] = system: SK-OV-3 ovarian
[24] = system: HT29 colon
[25] = system: RPMI-8226 leukemia
[26] = system: SK-MEL-5 melanoma
[27] = system: CAKI-1 renal
[28] = system: HCC-2998 colon
[29] = system: MDA-N
[30] = system: PC-3 prostate
[31] = system: SF-295 CNS
[32] = system: LOX IMVI melanoma
[33] = system: MALME-3M melanoma
[34] = system: OVCAR-3 ovarian
[35] = system: COLO 205 colon
[36] = system: UACC-257 melanoma
[37] = system: MCF7 breast
[38] = system: BT-549 breast
[39] = system: SF-268 CNS
[40] = system: 786-0 renal
[41] = system: TK-10 renal
[42] = system: UACC-62 melanoma
[43] = system: HL-60(TB) leukemia
[44] = system: HS 578T breast
[45] = system: MOLT-4 leukemia
[46] = system: OVCAR-4 ovarian
[47] = system: DU-145 prostate
[48] = system: HOP-92 NSCLC
[49] = system: SK-MEL-2 melanoma
[50] = system: MDA-MB-435
[51] = system: NCI-H226 lung
[52] = system: A549 NSCLC
[53] = system: SNB-75 CNS
[54] = system: T-47D breast
[55] = system: NCI-H522 lung
[56] = system: HCT-15 colon
[57] = system: HCT-116 colon
[58] = system: SR leukemia
[59] = system: RXF 393 renal

Cc1ccc2c(c1)C(=O)c1[nH]c3ccc(F)cc3c1CO2
TGI [1]: > 100 µM | TGI [2]: > 100 µM | TGI [3]: > 100 µM | TGI [4]: 49.8 µM | TGI [5]: 36 µM | TGI [6]: > 100 µM | TGI [7]: > 100 µM | TGI [8]: 62.2 µM | TGI [9]: 50.2 µM | TGI [10]: > 100 µM | TGI [11]: > 100 µM | TGI [12]: > 100 µM | TGI [13]: > 100 µM | TGI [14]: 46.8 µM | TGI [15]: > 100 µM | TGI [16]: > 100 µM | TGI [17]: > 100 µM | TGI [18]: > 100 µM | TGI [19]: > 100 µM | TGI [20]: > 100 µM | TGI [21]: > 100 µM | TGI [22]: > 100 µM | TGI [23]: 43 µM | TGI [24]: > 100 µM | TGI [25]: > 100 µM | TGI [26]: > 100 µM | TGI [27]: > 100 µM | TGI [28]: > 100 µM | TGI [29]: > 100 µM | TGI [30]: > 100 µM | TGI [31]: 31.6 µM | TGI [32]: > 100 µM | TGI [33]: > 100 µM | TGI [34]: > 100 µM | TGI [35]: > 100 µM | TGI [36]: > 100 µM | TGI [37]: > 100 µM | TGI [38]: > 100 µM | TGI [39]: > 100 µM | TGI [40]: > 100 µM | TGI [41]: 92.6 µM | TGI [42]: 98.2 µM | TGI [43]: > 100 µM | TGI [44]: 58.1 µM | TGI [45]: > 100 µM | TGI [46]: 88.8 µM | TGI [47]: > 100 µM | TGI [48]: > 100 µM | TGI [49]: 40.6 µM | TGI [50]: > 100 µM | TGI [51]: > 100 µM | TGI [52]: > 100 µM | TGI [53]: 40.4 µM | TGI [54]: > 100 µM | TGI [55]: > 100 µM | TGI [56]: > 100 µM | TGI [57]: > 100 µM | TGI [58]: > 100 µM

Cn1c(=O)c2c(nc3sc4nc5ccccc5nc4n32)n(C)c1=O
TGI [1]: > 100 µM | TGI [2]: > 100 µM | TGI [3]: > 100 µM | TGI [4]: > 100 µM | TGI [6]: > 100 µM | TGI [8]: > 100 µM | TGI [9]: > 100 µM | TGI [10]: > 100 µM | TGI [11]: > 100 µM | TGI [12]: > 100 µM | TGI [13]: > 100 µM | TGI [14]: > 100 µM | TGI [15]: > 100 µM | TGI [16]: > 100 µM | TGI [17]: > 100 µM | TGI [18]: > 100 µM | TGI [20]: > 100 µM | TGI [21]: > 100 µM | TGI [22]: > 100 µM | TGI [23]: > 100 µM | TGI [24]: > 100 µM | TGI [25]: > 100 µM | TGI [26]: > 100 µM | TGI [27]: > 100 µM | TGI [28]: > 100 µM | TGI [29]: > 100 µM | TGI [30]: > 100 µM | TGI [31]: > 100 µM | TGI [32]: > 100 µM | TGI [33]: > 100 µM | TGI [34]: > 100 µM | TGI [35]: > 100 µM | TGI [36]: > 100 µM | TGI [37]: > 100 µM | TGI [38]: > 100 µM | TGI [39]: > 100 µM | TGI [40]: > 100 µM | TGI [41]: > 100 µM | TGI [42]: > 100 µM | TGI [43]: > 100 µM | TGI [59]: > 100 µM | TGI [44]: > 100 µM | TGI [45]: > 100 µM | TGI [47]: > 100 µM | TGI [48]: > 100 µM | TGI [50]: > 100 µM | TGI [51]: > 100 µM | TGI [52]: > 100 µM | TGI [53]: > 100 µM | TGI [54]: > 100 µM | TGI [56]: > 100 µM | TGI [57]: > 100 µM | TGI [58]: > 100 µM

From PubChem BioAssay (NCI)
